Calls of active or inactive are those of the source. Rule as the data show it, for most assays here: actives have a measured EC50 and inactives only a lower limit. Some results are limits rather than exact numbers.

For 46 compounds, EC50 and AC50 results are on record in ChEMBL document CHEMBL1201862, “PubChem BioAssay data set” (2004).

The subject of one assay is Streptococcus. In words: Group A Streptococcus viability loss, dose response, counter-screen for streptokinase expression inhibitor project, luminescence, BacTiterGlo (AID 1915).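 Also: potency for reduction of bacterial viability or growth.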 Type of assay: functional, organism-based. In general terms: A counterscreen serves to expose hits that act by an unwanted route or on another target.
Another assay addresses T1, Streptokinase A (Streptococcus pyogenes serotype M1, UniProt P10520).
T1 sequence (P10520 whole entry): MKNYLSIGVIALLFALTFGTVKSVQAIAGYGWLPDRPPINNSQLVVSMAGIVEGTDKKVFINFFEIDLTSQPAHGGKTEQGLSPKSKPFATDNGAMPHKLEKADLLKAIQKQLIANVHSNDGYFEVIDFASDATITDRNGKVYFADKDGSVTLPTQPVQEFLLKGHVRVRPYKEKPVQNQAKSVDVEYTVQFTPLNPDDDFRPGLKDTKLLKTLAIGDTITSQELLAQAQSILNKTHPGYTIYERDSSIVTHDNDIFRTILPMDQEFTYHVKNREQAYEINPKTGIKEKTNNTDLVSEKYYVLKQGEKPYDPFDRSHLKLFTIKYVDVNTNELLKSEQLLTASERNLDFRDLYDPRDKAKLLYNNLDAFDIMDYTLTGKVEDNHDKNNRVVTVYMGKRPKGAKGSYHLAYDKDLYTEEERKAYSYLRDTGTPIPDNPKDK
Briefly: S. pyogenes streptokinase expression inhibitors, potency, dose response, plasminogen activation absorbance, OD405 (AID 1914).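 Also: secreted streptokinase activity via plasminogen activation per viability signal from cell pellet.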 Type of assay: functional, Streptococcus pyogenes M1 GAS.

Assay [1] has as its system Streptococcus sp. 'group A'. In words: growth inhibition of control SK(-) GAS strain, dose response, counter-screen for streptokinase expression inhibitor project, luminescence, kanamycin, BacTiterGlo, confirmation (AID 1900). Type of assay: functional, organism-based.
Assay [2] in a line: cytotoxicity toward NIH3T3 fibroblasts, dose response, counter-screen, cell-based, ATP luminescence, mouse fibroblasts (AID 2010).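 Also: cells exposed to compound for about 90 hours before reading.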 Type of assay: functional.
Assay [3] can be described thus: inhibitors of intracellular T. cruzi replication, confirmation, NIH3T3 host cells, beta-gal luminescence (AID 2044).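 Also: intracellular parasites grown in NIH/3T3 mouse fibroblasts as host cells; luminescent beta-galactosidase reporter signal from transgenic T. cruzi replicating inside host cells; inhibitors lower the luminescence signal.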 The format is functional, cell-based.
The nature of assay [4]: Luminescence Cell-Based Dose Retest to Confirm Inhibitors of Cancer Stem Cells. [Related pubchem assays (depositor defined):AID2717, AID2721]. Type of assay: functional. Particulars: Homo sapiens.
The target in the next assay is Cytochrome P450 2C9 (Homo sapiens, UniProt P11712).
Assay [5] addresses T2, Corticotropin-releasing factor receptor 2/Corticotropin-releasing factor-binding protein (Homo sapiens, UniProt P24387+Q13324).
T2 sequence (Q13324 whole entry): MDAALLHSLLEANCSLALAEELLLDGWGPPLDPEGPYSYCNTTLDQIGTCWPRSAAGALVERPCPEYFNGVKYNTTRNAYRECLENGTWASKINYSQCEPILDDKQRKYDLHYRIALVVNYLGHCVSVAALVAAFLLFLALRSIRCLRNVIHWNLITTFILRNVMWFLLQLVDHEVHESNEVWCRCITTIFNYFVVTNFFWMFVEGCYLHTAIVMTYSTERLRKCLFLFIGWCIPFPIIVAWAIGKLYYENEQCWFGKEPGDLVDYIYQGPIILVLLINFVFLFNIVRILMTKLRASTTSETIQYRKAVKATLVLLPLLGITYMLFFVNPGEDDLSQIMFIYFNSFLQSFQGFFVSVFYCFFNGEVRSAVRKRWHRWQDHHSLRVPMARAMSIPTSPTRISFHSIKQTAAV
T2 sequence (P24387 whole entry): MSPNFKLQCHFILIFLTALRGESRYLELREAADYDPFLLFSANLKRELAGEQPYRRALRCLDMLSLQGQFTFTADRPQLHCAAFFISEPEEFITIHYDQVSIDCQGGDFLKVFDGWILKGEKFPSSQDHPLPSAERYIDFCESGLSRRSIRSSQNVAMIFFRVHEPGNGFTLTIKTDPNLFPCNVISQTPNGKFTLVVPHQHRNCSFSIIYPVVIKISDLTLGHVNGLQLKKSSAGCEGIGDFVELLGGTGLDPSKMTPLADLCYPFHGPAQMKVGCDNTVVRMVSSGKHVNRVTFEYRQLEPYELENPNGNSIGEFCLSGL
Briefly: activators of CRF receptor 2 with binding protein – uHTS hits, confirmation (AID 602473). The format is functional. The note with it: read-out: EC50_Mean.

For a further assay, the system named is INS1. In words: beta cell apoptosis inhibitors, cytokine rescue, dose response, luminescence, retest (AID 449756).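 Also: cell death triggered by IL-1 beta plus TNF-alpha plus IFN-gamma mixture; protective hits raise ATP signal compared with cytokine alone wells.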 The note with it: Rattus norvegicus. The format is functional, cell-based.

Chain of Cytochrome P450 2C9 (P11712 whole entry): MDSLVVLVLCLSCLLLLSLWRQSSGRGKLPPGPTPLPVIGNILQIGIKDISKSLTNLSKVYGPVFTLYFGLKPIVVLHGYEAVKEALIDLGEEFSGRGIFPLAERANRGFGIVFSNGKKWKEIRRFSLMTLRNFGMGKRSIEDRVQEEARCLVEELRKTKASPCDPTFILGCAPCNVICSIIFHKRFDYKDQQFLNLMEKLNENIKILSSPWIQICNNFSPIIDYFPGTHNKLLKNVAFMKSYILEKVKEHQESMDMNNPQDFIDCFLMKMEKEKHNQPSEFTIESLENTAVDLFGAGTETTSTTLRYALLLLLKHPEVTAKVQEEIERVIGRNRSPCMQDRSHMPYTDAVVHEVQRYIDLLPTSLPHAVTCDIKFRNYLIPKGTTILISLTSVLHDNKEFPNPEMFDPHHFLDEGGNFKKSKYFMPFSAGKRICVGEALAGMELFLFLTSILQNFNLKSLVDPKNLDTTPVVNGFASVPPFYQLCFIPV

As to `COc1ccc(C(=O)N2CCc3c([nH]c4ccccc34)C2C(F)(F)F)cc1` (stereo not given), the EC50 (in the assay on Streptococcus; at Streptokinase A; in assay [1]) was > 150 µM (not active) in each case.

With `Cc1ccc(-c2cc(-c3ccccc3)nc(N(C)N)n2)cc1`, the EC50 with Streptococcus is > 150 µM (not active); on Streptokinase A, > 150 µM (not active); in assay [1] it was 14.6 µM (active). For the compound `Cc1ccc(-n2c(N)c(-c3nc4ccccc4n3C)sc2=S)cc1`, the EC50 in the assay on Streptococcus is > 150 µM (not active); on Streptokinase A, > 150 µM (not active); in [1] it was 39.6 µM (active). For the compound `COc1ccc(/C=C/C2=CCN(Cc3ccc(OC)cc3)CC2)cc1`, the EC50 is > 60 µM (not active) in assay [2] and 3.17 µM (active) in assay [3].

The AC50 is the concentration at which the activity in the assay is half-maximal. Take `O=C(Nc1cccc(-c2csc(Nc3ccc(Cl)cc3)n2)c1)c1cc([N+](=O)[O-])cc(C(F)(F)F)c1`: the half-maximal activity concentration (AC50) in [4] was 1.56 µM (active).

In the case of `Cc1ccc2nc(N=C(NS(=O)(=O)c3ccc(F)cc3)c3ccccc3)sc2c1`, the EC50 in the assay on Streptococcus was 10 µM (active); at Streptokinase A, > 50 µM (not active); in assay [1], 5.01 µM (active). As to `CC(C)CCOc1ccc(NC(=O)C2OC3OC(C)(C)OC3C3OC(C)(C)OC23)cc1` (stereo not given), at Cytochrome P450 2C9, the AC50 was 25.1 µM (inconclusive). `COc1ccc(CN(C)CC(=O)c2c(N)n(Cc3ccccc3)c(=O)n(C)c2=O)c(OC)c1`: the EC50 in assay [2] is > 60 µM (not active); in assay [3], 2.78 µM (active).

Turning to `c1ccc(CSc2nnc([C@@H]3CCCN3)o2)cc1`, the half-maximal activity concentration (AC50) on Cytochrome P450 2C9 was 5.62 µM (inconclusive).

Consider `COc1ccc(S(=O)(=O)N2CCCCCC2)cc1N(C)S(=O)(=O)c1ccc(Cl)cc1`, for which the figures for the EC50 in [2] and in assay [3] were > 60 µM (not active) and 2.21 µM (active), respectively. As to `CSc1ccc(/C=C/c2ccc3cccc(O)c3n2)cc1`, the results for the EC50 (in the assay on Streptococcus; in assay [1]) were 14 µM (active) and 0.693 µM (active), respectively. Take `COc1cc(/C=N/N(c2ccccc2)c2ccccc2)ccc1O`: the AC50 in assay [4] was 5.16 µM (active). Consider `CC(=O)c1c(O)cc(=O)n(-c2ccccc2)c1-c1cccc2ccccc12`, for which the AC50 at Cytochrome P450 2C9 was 22.4 µM (inconclusive). Turning to `COc1cc(OC)c(C=O)c(OC(=O)N2CCOCC2)c1`, the AC50 in [4] is > 195 µM (inactive).

For the compound `COc1ccc(-n2c(=O)c3c4c(sc3n3c(S)nnc23)CCC4)cc1`, the EC50 with Streptococcus is 17.4 µM (active); in [1], 15.7 µM (active).

With `CN1CCN(CCOc2ccc(Cl)c(Cl)c2)CC1`, the EC50 in assay [2] was > 60 µM (not active); in [3], 0.516 µM (active). Take `CC(C)Cc1ccc(C(C)C(=O)Nc2ccc(O)cc2)cc1` (stereo not given): the EC50 in [5] is 3.77 µM (active). Regarding `CC1(C)C=Cc2c(c3c(c4c(=O)c(-c5ccc(O)cc5)coc24)OC(C)(C)CC3)O1`, the AC50 in [4] was 6.61 µM (active).

For the compound `Cn1c(=S)c2nc(SCc3cccnc3)[nH]c2n(C)c1=O`, the concentration at half-maximal activity (AC50) on Cytochrome P450 2C9 is 6.31 µM (inconclusive). Regarding `O=C(NCCc1ccccc1F)C1CCCN1S(=O)(=O)c1ccc2ccccc2c1` (stereo not given), the EC50 in assay [2] was > 60 µM (not active); in assay [3], 1.63 µM (active). With `Cc1nc(SCc2nc3cc(C(F)(F)F)ccc3[nH]2)c2oc3ccccc3c2n1`, in [4], the AC50 was 4.11 µM (active). The same measure, in the same setting: next, `CC(=O)c1ccc(-c2cc([C@H]3[C@H]4C=CC[C@@H](C)[C@@H]4C(=O)N3Cc3ccccc3)ccc2F)cc1`: 5.46 µM (active). Regarding `O=C1CN(/N=C/c2ccc([N+](=O)[O-])o2)C(=O)N1` [NITROFURANTOIN], the EC50 in the assay on Streptococcus was 9.83 µM (active); on Streptokinase A, > 150 µM (not active); in [1], 3.16 µM (active). As to `COc1ccccc1CNc1nc(-c2ccc(N(C)C)cc2)nc2ccccc12`, at Cytochrome P450 2C9, the concentration at half-maximal activity (AC50) is 0.794 µM (inconclusive). `Cc1ccc(NC(=S)N(CCCN2CCCC2)Cc2cccn2Cc2ccc(Cl)cc2)cc1Cl`: the AC50 in assay [4] was 5.36 µM (active). `CN1CCN(CCCOc2ccc(-c3ccccc3)cc2)CC1`: the EC50 in assay [2] was 7.93 µM (active); in assay [3], 0.988 µM (active).

Take `O=[N+]([O-])c1ccc(CP(=O)(c2ccccc2)c2ccccc2)cc1`: in assay [4], the AC50 was > 195 µM (inactive). With `COc1ccccc1CNC(=O)C(=O)NCC1CCCN1S(=O)(=O)c1cccs1` (stereo not given), the EC50 in assay [2] is > 60 µM (not active); in [3] it was 2.54 µM (active). Taken in the same sequence, the figures for `Cc1ccc(NS(=O)(=O)c2ccc(NC(=O)c3ccccc3C(=O)O)cc2)c(C)c1` were > 60 µM (not active) and > 60 µM (not active). For `COc1cc(OC)cc(C(=O)Nc2cccc(N3CCCC3)c2)c1` the same measures were > 30 µM (not active) and 3.33 µM (active). In the case of `COc1cnc(-c2ccccn2)nc1Oc1ccc(C(C)(C)C)cc1`, in the assay on INS1, the concentration at half-maximal activity (AC50) is 6.45 µM (active). The results for the EC50 (in the assay on Streptococcus; on Streptokinase A; in assay [1]) were 19.2 µM (active), > 150 µM (not active) and 12.4 µM (active), respectively. On to `CCCCc1ccc(N/N=C(\C(C)=O)C(=O)Nc2ccc(NC(C)=O)cc2OC)cc1`, for which, in assay [4], the concentration at half-maximal activity (AC50) was 3.91 µM (active). For the compound `CCCOc1ccc(NCC(=O)Nc2ccc(C)cc2C)cc1`, the EC50 was > 60 µM (not active) in assay [2] and 3.07 µM (active) in assay [3]. Take `COc1cc2cc(C(=O)N3CCOCC3)cc(-c3ccc(C)cc3)c2cc1OC`: the AC50 in the assay on INS1 was 6.42 µM (active). In the case of `O=c1c2ccccc2nc(SCCN2CCCCC2)n1CCc1ccccc1`, the EC50 in assay [2] is > 60 µM (not active); in assay [3], 1.57 µM (active).

In the case of `O=C(CSc1nnc(CNC(=O)c2ccccc2)o1)NCc1ccccc1`, the EC50 (in the assay with Streptococcus; at Streptokinase A; in assay [1]) was > 150 µM (not active) throughout. For `O=C(c1ccc(O)cc1)c1ccc(C(=O)c2ccc(O)cc2)cc1`, the EC50 in the assay with Streptococcus was 31.4 µM (active); at Streptokinase A, > 150 µM (not active); in [1] it was 2.84 µM (active). For `Cc1ccccc1CN(C)CC(=O)Nc1ccccc1-c1ccccc1` the same measures were > 150 µM (not active), 23.3 µM (active) and 7.65 µM (active).

Regarding `CC(=O)c1ccccc1OCCOCCOc1ccccc1C(C)=O`, the concentration at half-maximal activity (AC50) in the assay with INS1 is 31.1 µM (active). With `CCn1cc(C(=O)N[C@H](C)c2ccccc2)c(=O)c2cc(F)c(N3CCN(C)CC3)cc21`, the AC50 in assay [4] was 0.796 µM (active). Take `CC1(C)S[C@@H]2[C@H](NC(=O)COc3ccccc3)C(=O)N2C1C(=O)OCc1ccccc1` (stereo not given in full): the EC50 is 2.56 µM (active) in the assay on Streptococcus, > 150 µM (not active) on Streptokinase A and 1.42 µM (active) in assay [1].

For `CC(C)(C)c1cc(C(=O)NNc2cccc(Cl)c2)n(Cc2ccccc2)n1`, the concentration at half-maximal activity (AC50) in assay [4] is 1.34 µM (active). Consider `Cc1ccc(-c2csc(-c3c[nH]c4ccccc34)n2)c(C)c1`, for which the AC50 in assay [4] is 2.88 µM (active). Moreover, the EC50 with Streptococcus was 7.96 µM (active); on Streptokinase A it was > 150 µM (not active); in [1], 12 µM (active). Consider `CN1CCc2nc(SCc3ccc(C(C)(C)C)cc3)c(C#N)cc2C1`, for which the EC50 in assay [2] is 19 µM (active); in [3] it was 0.465 µM (active). `COc1ccc(CCC(C)NCC2CCCCC2)cc1` (stereo not given): the half-maximal activity concentration (AC50) in assay [4] was 5.09 µM (active). Take `Cc1cc2oc(=O)cc(CN3CCN(S(=O)(=O)/C=C/c4ccccc4)CC3)c2cc1C`: the figures for the EC50 in assay [2] and in [3] were > 60 µM (inconclusive) and 2.02 µM (active), respectively.
